Measured values taken from ChEMBL document CHEMBL3507680, “University of Dundee, Gates Library screen for HepG2 cell viability”.

assay: Human HepG2 cell viability assay in 384 well format; assay type: toxicity, cell-based; set-up: dose 125 nL, time 70.5 hour; cytotoxicity at 70.5 h: concentration not given beside the values; settings: HepG2 cells, read-out: Inhibition

Row | Compound | cytotoxicity at 70.5 h
1 | CCC(=O)N1CCc2[nH]cnc2C12CCN(CC1CCOC1)CC2 (stereo not drawn) | -9.55%
2 | Cc1nn(C)c(C)c1CCC(=O)N1CCCOC(Cn2cccn2)C1 (stereo not drawn) | -2.69%
3 | CC(C)NC(=O)[C@H]1C[C@@H]2[C@@H](C1)OCCN2CC1CC1 | -3.31%
4 | Cc1nn(C)c(N2CCOCC2)c1CNCc1ccccc1CO | -10.1%
5 | Cc1nnsc1C(=O)N1CCN(C(=O)C2CCC2)[C@@H]2CS(=O)(=O)C[C@@H]21 | -10.8%
6 | Cc1cccc2c1nc1n2[C@@H](CNC(=O)c2cncnc2)COC1 | -3.15%
7 | CN(C)CCN1C(=O)CCCC12CCCN(Cc1ccc[nH]1)C2 (stereo not drawn) | 26%
8 | Cc1nc(C)n(C2CCCN(C(=O)COc3cccc(C#N)c3)C2)n1 (stereo not drawn) | -20.2%
9 | CCS(=O)(=O)N1CCC2(CC1)COC(COc1cccnc1)C2 (stereo not drawn) | -10.2%
10 | CCOC(=O)N1CCC2(CCCN(C3CCOCC3)C2=O)C1 (stereo not drawn) | -8.17%
11 | COC(=O)CCC(=O)Nc1ccc(Br)c(C)n1 | -0.954%
12 | O=C1CN(Cc2ccc3ccccc3n2)CCN1C1CCCC1 | -1.73%
13 | COc1cc(OC)c(CNC(=O)NCC(=O)N(C)C)c(OC)c1 | 1.38%
14 | COc1c(CNCc2ccc(CN(C)C)cc2)c(C(C)C)nn1C | 2.15%
15 | O=C(CCN1CCCC1=O)Nc1cnn(-c2ccccc2Cl)c1 | -8.1%
16 | Cc1ccsc1C(=O)N1C[C@@H](C(=O)O)[C@H](C(C)C)C1 | 0.968%
17 | CCC1CN(CC(=O)NCCN(CC)CC)c2ccccc2S1 (stereo not drawn) | -6.69%
18 | COc1ccc(N2CCN(Cc3nc(CSC)no3)C(C)C2=O)cc1 (stereo not drawn) | -21.8%
19 | CCc1cnc(NCCS(=O)(=O)N(C)C)nc1 | 20.6%
20 | CC(Cc1ccco1)NC(=O)Nc1ccc(S(C)(=O)=O)nc1 (stereo not drawn) | -2.2%
21 | O=C1CCN(C(=O)C2(c3ccc(F)cc3)CCCCC2)CCN1 | -8.46%
22 | COCC(C)N1CCc2onc(-c3ccc(C(F)(F)F)cc3)c2C1 (stereo not drawn) | -7.25%
23 | Cc1ccc2c(c1)OCCCC2NCc1nccn1CC(C)C (stereo not drawn) | -7.28%

Row | Compound | cytotoxicity at 70.5 h
24 | COc1ccccc1C1(CNC(=O)NCc2noc(C)n2)CC1 | 26.4%
25 | CCN(Cc1nc2c(cnn2C)c(=O)[nH]1)c1cc(C)cc(C)c1 | 9.75%
26 | COc1c(C(=O)NC(C)Cc2ccccc2Cl)c(C)nn1C (stereo not drawn) | 3.5%
27 | CO[C@@H]1CN(Cc2scnc2C)[C@@H]2CCCO[C@@H]21 | -4.62%
28 | CC(C)CCN1CC2(CCN(C(=O)C3(C)CCCCO3)CC2)OC1=O (stereo not drawn) | 49.2%
29 | Cc1ccc(NCCCNc2nccc(-c3cn(C)nc3C)n2)nc1 | 13.9%
30 | Cc1ccccc1CCC1CCCN(Cc2c(C)[nH]c(=O)[nH]c2=O)C1 (stereo not drawn) | -8.6%
31 | Cc1cccc(-c2nnn3c2COC(CNC(=O)N2CCCC2)C3)c1 (stereo not drawn) | 1.74%
32 | COc1cccc2c3c(c(=O)[nH]c12)CC(C)(C)O3 | -6.98%
33 | CC(=O)N1CC[C@H]2OCC[C@@H](C(=O)Nc3cccnc3C)[C@@H]2C1 | -5.24%
34 | CC(NC(=O)NCCc1cnn(C)c1)c1ccc(Cl)s1 (stereo not drawn) | -15%
35 | CC(C)=CCN1CCC(c2nccn2Cc2cscn2)CC1 | -2.36%
36 | CCS(=O)(=O)N1CCCn2c(nc(CN3CCCC3)cc2=O)C1 | -7.43%
37 | CCOc1ccc(CN2CC[C@H]3CC[C@@H](C2)N3)cc1CO | -14%
38 | OC(c1cnn(-c2ccccc2)c1)C(F)(F)F (stereo not drawn) | -1.66%
39 | O=C(CN1CCCC1Cn1cncn1)NCC1(c2ccccc2)CC1 (stereo not drawn) | -5.75%
40 | CN(C)CCNC(=O)c1cnc2c(c1)nc(-c1ccccc1Cl)n2C | -10.7%
41 | CC(C)NC(=O)C1CCC2(CCN(Cc3cnn(C)c3)CC2)CO1 (stereo not drawn) | -17%
42 | Cc1noc([C@@]23CCO[C@@H]2CCN(C(=O)C2CCOCC2)C3)n1 | 4.56%
43 | Cc1cc(C2CCCN(C(=O)c3cnccn3)C2)ccn1 (stereo not drawn) | -0.249%
44 | COCCCN(C)c1cc(C(F)(F)F)nc(-c2cccnc2)n1 | -5.74%
45 | CC(Nc1cccc(CN2CCOC2=O)c1)C(=O)Nc1ccccc1F (stereo not drawn) | -7.83%
46 | CC(=O)Nc1nc(C2CCCN(C(=O)CN(C)C)C2)cs1 (stereo not drawn) | -9.21%

Row | Compound | cytotoxicity at 70.5 h
47 | Cn1cc(CN2CCCN(C(=O)c3cn4ccccc4n3)CC2)cn1 | -0.261%
48 | COc1ccccc1C(=O)NC(CC(=O)O)c1cccs1 (stereo not drawn) | -3.76%
49 | O=C(c1cccs1)N1CCC2(CC1)CCN(S(=O)(=O)C1CC1)CC2 | -11.7%
50 | Cc1cc(CN2CCCC2)cc(Oc2ccc(C(F)(F)F)cn2)c1 | -0.531%
51 | CCC(=O)N1CCC2(CC1)CC(CC(=O)NC1CC1)c1ccccc1O2 (stereo not drawn) | 5.58%
52 | O=C(Nc1cn[nH]c1)c1ccncc1 | 4.52%
53 | O=C(C1CCC1)N1CCC2(CC1)OCCO2 | -7.76%
54 | COc1ccc(F)cc1S(=O)(=O)NCCn1cnc(C)cc1=O | -12.5%
55 | CN1CCCN(c2nccc(-c3cc(C(=O)O)ccn3)n2)CC1 | 24.6%
56 | Cc1ccc2[nH]c(-c3cn(C4CCNCC4)nn3)nc2c1C | -3.44%
57 | O=C1CCC2(CCN(S(=O)(=O)c3ccccc3)CC2)N1CC1CC1 | -12.5%
58 | COc1ccccc1CC1CCCN(C(=O)c2n[nH]c3c2CCC3)C1 (stereo not drawn) | -3.07%
59 | Cc1cccc(C(=O)NCC(O)c2ccc(F)cc2F)c1 (stereo not drawn) | -0.893%
60 | Cc1ccc(OCC(O)CN(C)CC(=O)Nc2cc(C)on2)c(C)c1 (stereo not drawn) | 10.1%
61 | C=C(C)COc1cccc(C(=O)N(C)C(C)c2c(C)n[nH]c2C)c1 (stereo not drawn) | -4.42%
62 | NC(=O)c1cc2c(nc1N1C[C@H]3OC(=O)N(C4CCCC4)[C@H]3C1)CCC2 | -10.7%
63 | Cc1cc(C(=O)N2CC[C@H](N3CCOCC3)[C@H](CCCO)C2)c(C)n1C | -16.1%
64 | O=C(CCN1CCCC1c1cccc2c1OCCO2)N1CCCCC1 (stereo not drawn) | -6.86%
65 | NCC(=O)N1CCC(c2ccnc(Nc3cc(C(F)(F)F)ccn3)n2)C1 (stereo not drawn) | 16.8%
66 | COc1cccc(CCC2CCCN(C(=O)c3ccc(OC)o3)C2)c1 (stereo not drawn) | -3.25%
67 | Cc1ccccc1-n1cc(CN(C)C(=O)CC2C(=O)NCCN2C)cn1 (stereo not drawn) | -2.44%
68 | CCc1nc(C)c(C(=O)NCCN2CCC(C)CC2)s1 | 0.72%
69 | CNC(=O)Cc1ccc(-n2ccnc2-c2ccc(C(=O)O)s2)cc1 | -5.64%

Row | Compound | cytotoxicity at 70.5 h
70 | CSc1nccc(N2C[C@@H](CN3CCCCC3)[C@@H](CO)C2)n1 | 27.1%
71 | Cc1nc(C)n(CC2CCCN(CCCOc3ccc(F)cc3)C2)n1 (stereo not drawn) | -2.75%
72 | Cc1nnsc1C(=O)NCc1cccnc1N(C)C | -3.02%
73 | O=C(c1ccc(NCc2cccc(F)c2)cc1)N1CCC(CO)CC1 | 2.87%
74 | O=C(O)[C@@H]1CN(C(=O)CC2CCCC2)C[C@H]1c1ccc(F)cc1 | -6.35%
75 | CN1CCN(CC2CC2)C(=O)c2cnc(N3CC[C@@H](O)C3)nc21 | 27.1%
76 | c1cnc(N2CCCC3(CN(CC4CCOCC4)CCO3)C2)cn1 (stereo not drawn) | -3.73%
77 | Cn1cncc1CN1CCc2nc3sccc3c(=O)n2CC1 | -19.1%
78 | CCNc1ncc(CN2C[C@@H](C(=O)O)[C@H](C3CC3)C2)cn1 | -7.25%
79 | NCC1Cc2cc(-c3cnccn3)cc(Cl)c2O1 (stereo not drawn) | 0.342%
80 | COc1cccc(-c2noc(-c3ccc(NCC4CC4)nc3)n2)c1OC | -2.04%
81 | CCOC(C)c1nc(CN2CCN(c3nccc(C)n3)CC2)cs1 (stereo not drawn) | -8.29%
82 | Cc1ccc(CC2CCCN2CC(=O)NCc2cccnc2)cc1 (stereo not drawn) | -15.4%
83 | CCc1noc(C)c1-c1nc(Cc2cccs2)nn1C1CCN(C)CC1 | -1.49%
84 | Cc1cnn(CC2CCCN2CC(=O)N(C)Cc2ccc(C)o2)c1 (stereo not drawn) | -7.64%
85 | COCCN1CCCC1c1nccnc1Nc1ncc(C)s1 (stereo not drawn) | -1.57%
86 | Cc1ccsc1CN(C)c1nc2c(cnn2C(C)(C)C)c(=O)[nH]1 | -4.96%
87 | COCC(=O)N1CCC2(CC1)CC(OC)CO2 (stereo not drawn) | -7.5%
88 | Cc1ccccc1C(C(=O)N(C)Cc1cnn(C)c1)N(C)C (stereo not drawn) | -1.08%
89 | O=S(=O)(c1cncc(F)c1)N1CCC2(CCOC2)C1 (stereo not drawn) | -14.3%
90 | CCCN1CCN(Cc2cn(CCC(N)=O)c3ccccc23)CC1 | -3.42%
91 | Cc1cc(NCCNc2cccnc2)nc(N)n1 | 12.3%
92 | Cc1n[nH]c(CCC(=O)N2CCOC(Cc3ccc(F)cc3)C2)c1C (stereo not drawn) | 10.5%

Row | Compound | cytotoxicity at 70.5 h
93 | COc1cnc(N2CCC(c3ncc[nH]3)CC2)nc1 | 17.8%
94 | Cc1cc(C)nc(N2CCCC(Cn3cc(CN(C)C)nn3)C2)n1 (stereo not drawn) | -6.18%
95 | NC(=O)c1cn2cc(-c3ccccc3Cl)n(CC3CC3)c(=O)c2n1 | -9.1%
96 | Cc1ccc(C(=O)NCC(C)Cn2cccn2)c(=O)[nH]1 (stereo not drawn) | -3.38%
97 | Cc1nn(C)c(Cl)c1S(=O)(=O)N(CC(N)=O)CC(C)C | -16.6%
98 | CC1(C)OCC(CNC(=O)c2cnn(-c3cccc(Cl)c3Cl)c2N)O1 (stereo not drawn) | 17%
99 | Cc1ccc2[nH]c(=O)c(CN(C)Cc3cc(C4CC4)[nH]n3)cc2c1 | 11.1%
100 | COc1c(NC(=O)C(C)CCOc2ccccc2)c(C)nn1C (stereo not drawn) | 7.42%
101 | O=C(Nc1cccnc1)[C@H]1C[C@H]2OCC[C@H]2N(CC2CC2)C1 | -14.8%
102 | Cc1n[nH]c(C)c1-c1cnc(C2CCN(S(C)(=O)=O)CC2)cn1 | -6.98%
103 | Cc1noc(C)c1C(=O)NCc1cccnc1N(C)C | -9.96%
104 | Cn1cc(CN2CCC3(C2)CN(Cc2ccsc2)C3)cn1 | -6.34%
105 | CC(=O)N1CCc2nc(N3CCCC3)nc(C)c2C1 | -0.643%
106 | Cc1ccn(Cc2nc(CC(C)C)no2)c(=O)c1 | -6.72%
107 | COc1cccc2c1OCC(C(=O)NCc1nc3c(s1)CCCC3)C2 (stereo not drawn) | 21.6%
108 | C=C(C)COc1cccc(CNCCc2nc(N)cc(O)n2)c1 | -9.19%
109 | COc1ccc(CN(C)C(=O)CN2CC(n3cc(C)cn3)C2)cc1F | -2.77%
110 | O=C(NCCNCc1cccc2c1OCCCO2)C1CCCC1 | 14.5%
111 | CCc1ncc2c(n1)CN(Cc1cccc(OCC(N)=O)c1)CC2 | 1.32%
112 | Cc1n[nH]cc1CNCC(O)c1ccc(F)c(F)c1 (stereo not drawn) | -7.55%
113 | Cn1cc(CCNC(=O)NC2CCS(=O)(=O)C2)cn1 (stereo not drawn) | -1.53%
